Results from patent publication US11344601B2, “Tumor microenvironment-related target TAK1 and application thereof in inhibition of tumor” (Shanghai Institutes for Biological Sciences, Chinese …, priority 2017, dated 2022).

How the values were obtained:
[1] = system: BCa cell line MDA-MB-231/stromal cell line HBF1203 xenograft tumors; experiment: BCa xenograft (MDA-MB-231/HBF1203) preclinical chemotherapy, terminal tumor volume; assay type: in vivo, mice; settings: chemotherapy alone (group 6 vs group 5), MDA-MB-231/HBF1203 tumors
Method: (§1) FIG. 84. Statistical comparative analysis of terminal tumor volumes in BCa tumors transplanted mice (BCa cell line MDA-MB-231/stromal cell line […]1 for administration alone or combined with bleomycin for chemotherapy). […] All experimental mouse experiments were carried out in strict accordance with the relevant regulations of the Institutional animal care and use committee (IACUC) of the shanghai Institute of Life Sciences of the Chinese Academy of Sciences. ICR-SCID mice at an age of about 6 weeks (about 25 g in body weight) were used in this patent-related animal experiment. Stromal cells PSC27 and epithelial cells were mixed at a ratio of 1:4, with each implant containing 1.25×10^6 cells for tissue recombination. The transplant tumor was implanted into mice subcutaneously, and the animals were euthanized at the end of Week 8 after transplantation. The tumor volume was calculated according to the following formula: […] Similarly, lung and breast cancer xenograft tumors were formed by tissue recombination with A549 (non-small cell lung cancer cell line) and W138 (lung fibroblast line), MDA-MB-231 (triple negative breast cancer cell line) and HBF1203 (breast fibroblast line), respectively. In the preclinical chemotherapy trial, mice subcutaneously transplanted with tumors were fed standard experimental diet. […]

[2] = system: NSCLC cell line A549/stromal cell line W138 xenograft tumors; experiment: NSCLC xenograft (A549/W138) preclinical chemotherapy, terminal tumor volume; assay type: in vivo, mice; settings: chemotherapy alone (group 6 vs group 5)
Method: as §1, with “83.” for “84.”, “NSCLC” for “BCa”, “(NSCLC” for “(BCa”, “A549/stromal” for “MDA-MB-231/stromal”, “in combination” for “combined”, “bleomycin-based” for “bleomycin for”

ATM = target: T1, ATM (Homo sapiens, UniProt Q13315); experiment: p-ATM antibody-mediated IP of bleomycin-treated PSC27 cells (ATM-TRAF6 interaction); assay type: cell-based; settings: bleomycin-treated stromal cells
T1 construct: endogenous in cells; host or cells: PSC27 human prostate stromal cells
T1 sequence (Q13315 whole entry): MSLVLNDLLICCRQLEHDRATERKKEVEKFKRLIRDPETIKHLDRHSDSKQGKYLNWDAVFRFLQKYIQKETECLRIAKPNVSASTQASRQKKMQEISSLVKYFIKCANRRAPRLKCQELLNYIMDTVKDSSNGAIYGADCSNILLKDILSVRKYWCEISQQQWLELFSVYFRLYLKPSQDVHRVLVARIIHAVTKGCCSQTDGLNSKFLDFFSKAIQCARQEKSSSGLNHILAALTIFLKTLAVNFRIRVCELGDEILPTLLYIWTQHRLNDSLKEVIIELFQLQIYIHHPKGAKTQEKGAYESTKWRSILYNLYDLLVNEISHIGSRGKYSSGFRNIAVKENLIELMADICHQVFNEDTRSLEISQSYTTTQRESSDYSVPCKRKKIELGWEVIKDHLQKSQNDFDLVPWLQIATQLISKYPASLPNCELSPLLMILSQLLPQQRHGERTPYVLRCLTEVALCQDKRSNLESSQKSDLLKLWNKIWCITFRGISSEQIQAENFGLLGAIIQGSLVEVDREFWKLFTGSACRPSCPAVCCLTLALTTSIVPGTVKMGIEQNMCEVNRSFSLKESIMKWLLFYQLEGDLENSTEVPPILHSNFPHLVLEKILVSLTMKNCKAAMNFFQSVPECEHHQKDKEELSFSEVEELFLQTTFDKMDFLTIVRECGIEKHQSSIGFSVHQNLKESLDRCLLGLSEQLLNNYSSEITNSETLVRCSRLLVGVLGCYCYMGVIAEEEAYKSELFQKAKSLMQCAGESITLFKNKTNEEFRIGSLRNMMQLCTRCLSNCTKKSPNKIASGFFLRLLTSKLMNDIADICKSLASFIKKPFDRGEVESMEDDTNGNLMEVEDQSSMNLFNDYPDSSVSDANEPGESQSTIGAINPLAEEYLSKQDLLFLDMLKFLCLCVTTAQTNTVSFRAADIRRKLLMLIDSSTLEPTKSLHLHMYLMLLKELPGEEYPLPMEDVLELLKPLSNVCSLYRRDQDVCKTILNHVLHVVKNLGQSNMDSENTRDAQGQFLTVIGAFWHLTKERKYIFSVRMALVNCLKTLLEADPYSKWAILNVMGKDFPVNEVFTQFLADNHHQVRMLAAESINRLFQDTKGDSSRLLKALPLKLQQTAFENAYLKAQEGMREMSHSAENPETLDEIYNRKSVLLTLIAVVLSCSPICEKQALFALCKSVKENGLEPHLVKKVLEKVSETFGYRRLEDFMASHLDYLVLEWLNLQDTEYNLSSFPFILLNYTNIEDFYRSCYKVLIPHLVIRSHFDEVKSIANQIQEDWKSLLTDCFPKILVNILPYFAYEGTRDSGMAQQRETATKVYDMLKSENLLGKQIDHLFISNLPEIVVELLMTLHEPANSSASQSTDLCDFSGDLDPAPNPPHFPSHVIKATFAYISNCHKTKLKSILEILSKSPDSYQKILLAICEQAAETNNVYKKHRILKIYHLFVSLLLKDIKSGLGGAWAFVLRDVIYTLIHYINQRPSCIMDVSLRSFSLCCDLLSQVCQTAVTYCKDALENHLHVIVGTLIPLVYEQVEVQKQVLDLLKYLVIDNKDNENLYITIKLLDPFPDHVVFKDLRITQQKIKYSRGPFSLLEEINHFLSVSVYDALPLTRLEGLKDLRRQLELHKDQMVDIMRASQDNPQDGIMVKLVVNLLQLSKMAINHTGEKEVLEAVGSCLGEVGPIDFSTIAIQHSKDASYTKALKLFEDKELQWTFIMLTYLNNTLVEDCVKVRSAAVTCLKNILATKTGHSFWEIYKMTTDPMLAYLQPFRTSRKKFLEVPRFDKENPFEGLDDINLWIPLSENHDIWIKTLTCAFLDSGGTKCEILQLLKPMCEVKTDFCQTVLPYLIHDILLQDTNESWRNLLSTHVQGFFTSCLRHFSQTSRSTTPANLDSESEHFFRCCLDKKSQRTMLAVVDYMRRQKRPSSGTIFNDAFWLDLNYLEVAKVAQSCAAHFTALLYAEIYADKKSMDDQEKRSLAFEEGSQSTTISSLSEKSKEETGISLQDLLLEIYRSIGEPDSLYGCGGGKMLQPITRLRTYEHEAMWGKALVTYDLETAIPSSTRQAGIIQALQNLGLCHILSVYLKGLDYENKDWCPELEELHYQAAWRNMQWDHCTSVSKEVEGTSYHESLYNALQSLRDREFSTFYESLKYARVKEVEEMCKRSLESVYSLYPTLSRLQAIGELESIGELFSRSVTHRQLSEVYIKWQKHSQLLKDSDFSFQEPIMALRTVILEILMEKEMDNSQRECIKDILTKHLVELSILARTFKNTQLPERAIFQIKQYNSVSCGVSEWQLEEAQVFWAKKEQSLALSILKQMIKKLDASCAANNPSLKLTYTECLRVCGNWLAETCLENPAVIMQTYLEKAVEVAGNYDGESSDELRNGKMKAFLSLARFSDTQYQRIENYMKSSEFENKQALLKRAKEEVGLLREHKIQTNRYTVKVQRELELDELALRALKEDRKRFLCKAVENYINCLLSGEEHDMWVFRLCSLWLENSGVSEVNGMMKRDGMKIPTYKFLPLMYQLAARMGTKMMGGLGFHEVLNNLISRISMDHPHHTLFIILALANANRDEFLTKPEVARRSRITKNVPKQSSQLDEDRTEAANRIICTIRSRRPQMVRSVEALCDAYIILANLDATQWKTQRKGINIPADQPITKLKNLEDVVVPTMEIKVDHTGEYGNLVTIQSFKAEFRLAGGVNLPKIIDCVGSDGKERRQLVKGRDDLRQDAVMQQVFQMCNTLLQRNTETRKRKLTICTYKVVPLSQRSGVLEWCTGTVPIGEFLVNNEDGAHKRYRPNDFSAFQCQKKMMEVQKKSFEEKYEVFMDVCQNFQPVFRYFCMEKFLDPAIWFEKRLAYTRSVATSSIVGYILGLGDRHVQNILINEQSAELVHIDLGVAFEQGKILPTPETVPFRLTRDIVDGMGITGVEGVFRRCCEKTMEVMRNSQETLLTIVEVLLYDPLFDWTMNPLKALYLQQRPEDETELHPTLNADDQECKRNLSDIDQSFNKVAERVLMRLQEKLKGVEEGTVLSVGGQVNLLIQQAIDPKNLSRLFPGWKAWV
Method: Phosphorylated ATM (p-ATM) antibody-mediated IP analysis. The expression levels of TRAF6, p-ATM and ATM in IP precipitates were detected by Western blot. TRAF6, a loading control. PSC27 was treated with bleomycin (50 ug/ml) and then with the ATM small molecule inhibitor KU55933 (KU, 10 μM).

Row | interaction between activated ATM and TRAF6 (ATM) | Compound | decrease in terminal tumor volume [1] [%] | decrease in terminal tumor volume [2] [%]
1 | – | bleomycin | 32 | 38
2 | abolished | O=c1cc(-c2cccc3c2Sc2ccccc2S3)oc(N2CCOCC2)c1 [KU55933] | – | –
